Data: the supplement of paper PMC10307832

Legend:
Assay in all cases: relative viability (nuclei count vs DMSO), 5 days (fraction); higher = more cells survive
[1] = test system: NCI-H1734
Method in brief: (§1)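 The day after seeding in 1536-well plates, lung cancer cell lines were treated by pin tool with a single drug, or with a fixed anchor-drug dose together with five library-drug doses (not always all listed) in √10 steps. After 5 days, a combined fix-and-stain solution (final 0.05% Triton X-100, 1% formaldehyde, 1 ug/ml Hoechst) was added. Nuclei counted on 4× images gave relative viability as treated counts over vehicle counts, reported as the median of duplicate plates.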

[2] = test system: NCI-H2405
Method in brief: as §1

[3] = test system: NCI-H2347
Method in brief: as §1

[4] = test system: NCI-H322M
Method in brief: as §1

[5] = test system: NCI-H520
Method in brief: as §1

[6] = test system: NCI-H2023
Method in brief: as §1

[7] = test system: HCC-15
Method in brief: as §1

[8] = test system: NCI-H1563
Method in brief: as §1

[9] = test system: NCI-H1793
Method in brief: as §1

[10] = test system: H3255
Method in brief: as §1

[11] = test system: 201T
Method in brief: as §1

[12] = test system: COR-L23
Method in brief: as §1

[13] = test system: EPLC-272H
Method in brief: as §1

[14] = test system: LOU-NH91
Method in brief: as §1

[15] = test system: NCI-H3122
Method in brief: as §1

[16] = test system: NCI-H441
Method in brief: as §1

[17] = test system: PC-14
Method in brief: as §1

[18] = test system: UMC-11
Method in brief: as §1

[19] = test system: NCI-H647
Method in brief: as §1

CCN(CC)CCCCNc1ncc2cc(-c3cc(OC)cc(OC)c3)c(NC(=O)NC(C)(C)C)nc2n1 + C[C@]1(O)C[C@@H](c2nc(-c3ccc4ccc(-c5ccccc5)nc4c3)c3c(N)nccn32)C1 [Linsitinib] (partner 1 µM)
relative viability ([1]; first compound 0.01 µM): 0.864
relative viability ([1]; first compound 0.03162 µM): 0.923
relative viability ([1]; first compound 0.1 µM): 0.993
relative viability ([1]; first compound 0.3162 µM): 0.913
relative viability ([1]; first compound 1 µM): 0.835
relative viability ([2]; first compound 0.01 µM): 0.76
relative viability ([2]; first compound 0.03162 µM): 0.862
relative viability ([2]; first compound 0.1 µM): 0.863
relative viability ([2]; first compound 0.3162 µM): 1.03
relative viability ([2]; first compound 1 µM): 0.817
relative viability ([3]; first compound 0.01 µM): 0.93
relative viability ([3]; first compound 0.03162 µM): 0.999
relative viability ([3]; first compound 0.1 µM): 0.916
relative viability ([3]; first compound 0.3162 µM): 1.05
relative viability ([3]; first compound 1 µM): 0.889
relative viability ([4]; first compound 0.01 µM): 0.99
relative viability ([4]; first compound 0.03162 µM): 0.875
relative viability ([4]; first compound 0.1 µM): 0.938
relative viability ([4]; first compound 0.3162 µM): 0.982
relative viability ([4]; first compound 1 µM): 0.891
relative viability ([5]; first compound 0.01 µM): 0.998
relative viability ([5]; first compound 0.03162 µM): 1.02
relative viability ([5]; first compound 0.1 µM): 0.948
relative viability ([5]; first compound 0.3162 µM): 0.912
relative viability ([5]; first compound 1 µM): 0.332
relative viability ([6]; first compound 0.01 µM): 0.716
relative viability ([6]; first compound 0.03162 µM): 0.691
relative viability ([6]; first compound 0.1 µM): 0.636
relative viability ([6]; first compound 0.3162 µM): 0.708
relative viability ([6]; first compound 1 µM): 0.685
relative viability ([7]; first compound 0.01 µM): 1.04
relative viability ([7]; first compound 0.03162 µM): 0.875
relative viability ([7]; first compound 0.1 µM): 0.951
relative viability ([7]; first compound 0.3162 µM): 0.925
relative viability ([7]; first compound 1 µM): 0.872
relative viability ([8]; first compound 0.01 µM): 1.29
relative viability ([8]; first compound 0.03162 µM): 1.34
relative viability ([8]; first compound 0.1 µM): 1.13
relative viability ([8]; first compound 0.3162 µM): 1.09
relative viability ([8]; first compound 1 µM): 0.889
relative viability ([9]; first compound 0.01 µM): 1.14
relative viability ([9]; first compound 0.1 µM): 1.02
relative viability ([9]; first compound 0.3162 µM): 1.03
relative viability ([9]; first compound 1 µM): 0.656
relative viability ([10]; first compound 0.01 µM): 1.02
relative viability ([10]; first compound 0.03162 µM): 1.04
relative viability ([10]; first compound 0.1 µM): 0.986
relative viability ([10]; first compound 0.3162 µM): 1.06
relative viability ([10]; first compound 1 µM): 0.892
relative viability ([11]; first compound 0.01 µM): 1.07
relative viability ([11]; first compound 0.03162 µM): 1.02
relative viability ([11]; first compound 0.1 µM): 1.07
relative viability ([11]; first compound 0.3162 µM): 1.12
relative viability ([11]; first compound 1 µM): 1.02
relative viability ([12]; first compound 0.01 µM): 1
relative viability ([12]; first compound 0.03162 µM): 1.2
relative viability ([12]; first compound 0.1 µM): 1.15
relative viability ([12]; first compound 0.3162 µM): 1.09
relative viability ([12]; first compound 1 µM): 0.948
relative viability ([13]; first compound 0.01 µM): 1.26
relative viability ([13]; first compound 0.1 µM): 1.1
relative viability ([13]; first compound 0.3162 µM): 1.32
relative viability ([13]; first compound 1 µM): 1.17
relative viability ([14]; first compound 0.01 µM): 0.882
relative viability ([14]; first compound 0.03162 µM): 0.938
relative viability ([14]; first compound 0.1 µM): 0.968
relative viability ([14]; first compound 0.3162 µM): 0.996
relative viability ([14]; first compound 1 µM): 0.93
relative viability ([15]; first compound 0.01 µM): 1.05
relative viability ([15]; first compound 0.03162 µM): 1.02
relative viability ([15]; first compound 0.1 µM): 1.08
relative viability ([15]; first compound 0.3162 µM): 1.04
relative viability ([15]; first compound 1 µM): 1.01
relative viability ([16]; first compound 0.01 µM): 0.626
relative viability ([16]; first compound 0.03162 µM): 0.441
relative viability ([16]; first compound 0.1 µM): 0.808
relative viability ([16]; first compound 0.3162 µM): 0.635
relative viability ([16]; first compound 1 µM): 0.432
relative viability ([17]; first compound 0.01 µM): 1.01
relative viability ([17]; first compound 0.03162 µM): 1.03
relative viability ([17]; first compound 0.1 µM): 1.02
relative viability ([17]; first compound 0.3162 µM): 1.09
relative viability ([17]; first compound 1 µM): 0.885
relative viability ([18]; first compound 0.01 µM): 1.25
relative viability ([18]; first compound 0.03162 µM): 1.02
relative viability ([18]; first compound 0.1 µM): 1.29
relative viability ([18]; first compound 0.3162 µM): 1.21
relative viability ([18]; first compound 1 µM): 0.99
relative viability ([19]; first compound 0.01 µM): 1.31
relative viability ([19]; first compound 0.03162 µM): 1.09
relative viability ([19]; first compound 0.1 µM): 1.75
relative viability ([19]; first compound 0.3162 µM): 1.52
relative viability ([19]; first compound 1 µM): 1
